# Measured values taken from patent US20020035998A1, “Method for treatment of cancer and infectious disease” (priority 1995, published 2002).
# Columns and labels:
# Daudi target cells = assay: NK cell cytotoxicity (NKCC), 6-hour 51Cr-release assay against Daudi target cells; format: cell-based, human; conditions: for NKCC after treatment with IFN / NKCC (Cell Lysis %) ± SEM after treatment with IFN: agonist 10^−4 M plus IFN-α 25 U/ml; for NKCC after treatment with IFN: Percoll fraction 7; for NKCC after treatment with Medium: agonist 10^−4 M, no IFN, Percoll fraction 7, around 36% monocytes; for potency and effect in intensifying baseline NKCC and restoring the NK cell's response to IFN-α: compared with serotonin, Table 4; for NKCC (Cell Lysis %) ± SEM after treatment with IFN / NKCC (Cell Lysis %) ± SEM after treatment with Ran + IFN / NKCC (Cell Lysis %) ± SEM after treatment with Ran: Percoll fraction 8; for NKCC (Cell Lysis %) ± SEM after treatment with Ran + IFN: agonist 10^−4 M plus ranitidine 10^−4 M plus IFN-α 25 U/ml; for NKCC (Cell Lysis %) ± SEM after treatment with Ran: agonist 10^−4 M plus ranitidine 10^−4 M; for influence on the effect of serotonin on NKCC: ketanserin and ondansetron in equimolar concentrations
# Source text: (§1) MNC were obtained from peripheral venous blood from healthy human blood donors by Ficoll-Hypaque centrifuging, followed by Percoll density-gradient fractionation (Timonen and Saksela, 1980, J. Immunol. Methods 36, 285-291; Hellstrand and Hermodsson, 1990, Scand. J. Immunol. 31, 631-645).
# (§2) The target cells used in these experiments were K562, an NK-cell sensitive erythroleukemic cell line, or Daudi, a relatively NK-insensitive EBV-transformed B-cell lymphoblastoid cell line.
# (§3) The NKCC was determined six times as the specific ^51Cr-release for a NMNC: target-cell ratio of between 30:1 and 3.8:1 in two-fold dilution gradients. The suspensions of MNC/target cells were incubated in microplates at 37° C. for 6 hours (Daudi) or 16 hours (K562). The supernatant solution was then collected and examined for radioactivity in a gamma counter. The maximum ^51Cr-release was measured in target cell cultures treated with Triton X-100. The NKCC was calculated as the cell lysis % by the formula 100×(experimental release−spontaneous release/maximum release−spontaneous release)=cell lysis %.
# (§4) In the results shown in Table 2, MNC from five different donors were used. All compounds were added to mixtures of MNC and target cells at the start of a 6 h (Daudi) or 16 h (K562) effecter and target cell incubation. The effecter cells were obtained from Percoll fractions 7-8, containing 33-55% monocytes.
# In the experiment shown in Table 3, culture medium (control), histamine (10^−4 M), dimaprit (10^−4 M), ranitidine (ran) (10^−4 M) and/or IFN-α (25 U/ml) were added at the start of a 6-hour ^51Cr release assay using Daudi target cells. The data are representative of three similar experiments. NKCC is given as mean cell lysis %±SEM of six determinations. The effecter cells were recovered from a low-density Percoll fraction 8, containing around 40% monocytes.
# In the experiment shown in Table 4, culture medium (control), serotonin, 8-OH-DPAT (+)-ALK and/or IFN-α (25 U/ml) were added at the start of a 6-hour ^51Cr-release assay against Daudi target cells. The NKCC is given as cell lysis %±SEM of six determinations. The effector cells were recovered from the low-density Percoll fraction 7, containing around 36% monocytes.
# K562 target cells = assay: NK cell cytotoxicity (NKCC), 16-hour 51Cr-release assay against K562 target cells; format: cell-based, human
# Source text: as §1, §2, §3
# A low-density Percoll fraction was separated by counterflow centrifuge elusion (CCE) in a monocyte and in a lymphocyte fraction. The monocyte fraction was concentrated to >90% purity whereupon the contaminating cells consisted of large lymphocytes. The lymphocyte fractions obtained by CCE contained <3% monocytes, determined by morphology and Leu-M3 (CD14) antigen expression. The lymphocytes were […], […] , CD3^+/16^−/56^− T cells (45-50%), CD3^+/16^+/56^+ cells (1-5%), determined by flow cytometry.
# J The eluted monocytes and/or the NK cell-concentrated low-density lymphocytes were treated with IFN-α and histamine/serotonin. The compounds were added, separately or in combination, to mixtures of MNC and K562 target cells at the start of a 16-hour ^51Cr-release assay. The cytotoxicity against K562 in the NK cell-concentrated lymphocyte fraction was increased by IFN-α and unaffected by histamine or serotonin. […] The addition of eluted monocytes to the NK cell concentrated lymphocytes suppressed the baseline cytotoxicity to K562.
# In the experiments reported in Table 1, eluted lymphocytes were mixed with monocytes as shown in the table, in a total volume of 150 μl. The data are NKCC (mean ±SEM) of six determinations. Serotonin 10^−4 M and/or IFN-α (25 U/ml) was added at the start of a 16-hour microcytotoxicity test against 10^4 K562 target cells.
# as §4
# Cells from the monocyte-containing Percoll fraction 8 were incubated with culture medium, histamine (10^−4 M) or serotonin (10^−4 M) in the presence of IFN-α (0-100 U/ml). The data shown are NKCC (cell lysis %; mean±SEM of six determinations). The compounds were added at the start of a 16 h microcytotoxicity test against K 562 target cells.
# [1] = named agent(s) only, no further additive: histamine, dimaprit, ranitidine 10^−4 M, IFN-α 25 U/ml, Daudi 6 h, Percoll fraction 8, around 40% monocytes
# [2] = mixtures of eluted monocytes and NK cell-enriched lymphocytes
smiles,measurement,setting,value
"CCCN(CCC)C1CCc2cccc(O)c2C1 (stereo not drawn) [8-OH-DPAT, 8-hydroxy-2-(di-n-propylamino)tetralin, reference compound]",NKCC after treatment with IFN,Daudi target cells; Daudi 6 h,43.3 ± 1%
same,NKCC after treatment with Medium,Daudi target cells; Daudi 6 h,8.8 ± 1%
same,potency and effect in intensifying baseline NKCC and restoring the NK cell's response to IFN-α,Daudi target cells,comparable to that of serotonin
"CN(C)CCCSC(=N)N [Dimaprit, dimaprit, reference compound]",NKCC (Cell Lysis %) ± SEM after treatment with IFN,Daudi target cells; Daudi 6 h,32.6 ± 1%
same,NKCC (Cell Lysis %) ± SEM after treatment with Ran + IFN,Daudi target cells; Daudi 6 h,0.5 ± 0.5%
same,NKCC (Cell Lysis %) ± SEM after treatment with Ran,Daudi target cells; Daudi 6 h,0.4 ± 0.4%
same,NKCC (cell lysis % ± SEM),Daudi target cells; [1],6.4 ± 1%
same,effect of histamine on monocyte-induced suppression of resting and IFN-α-activated NK cells: influence of the agent,"Daudi target cells; simultaneous treatment, Table 3",imitated
"NCCc1c[nH]cn1 [Histamine, histamine]",NKCC (cell lysis % ± SEM),"K562 target cells; Exp 1, K562, 15:1, histamine 10^−4 M plus IFN 25 U/ml",76.4 ± 3%
same,NKCC (cell lysis % ± SEM),"K562 target cells; Exp 1, K562, 15:1, histamine 10^−5 M plus IFN 25 U/ml",74.1 ± 1%
same,NKCC (cell lysis % ± SEM),"K562 target cells; Exp 1, K562, 15:1, histamine 10^−5 M, medium (no IFN)",54.7 ± 1%
same,NKCC (cell lysis % ± SEM),"K562 target cells; Exp 1, K562, 15:1, histamine 10^−6 M plus IFN 25 U/ml",66.0 ± 2%
same,NKCC (cell lysis % ± SEM),"K562 target cells; Exp 1, K562, 15:1, histamine 10^−6 M, medium (no IFN)",39.2 ± 1%
same,NKCC (cell lysis % ± SEM),"K562 target cells; Exp 1, K562, MNC/target 15:1, histamine 10^−4 M, medium (no IFN), monocyte-containing Percoll fractions 7-8",55.5 ± 1%
same,NKCC (cell lysis % ± SEM),"K562 target cells; Exp 2, K562, 15:1, histamine 10^−4 M plus IFN 25 U/ml",67.9 ± 2%
same,NKCC (cell lysis % ± SEM),"K562 target cells; Exp 2, K562, 15:1, histamine 10^−4 M, medium (no IFN)",32.4 ± 1%
same,NKCC (cell lysis % ± SEM),"K562 target cells; Exp 2, K562, 15:1, histamine 10^−5 M plus IFN 25 U/ml",66.2 ± 1%
same,NKCC (cell lysis % ± SEM),"K562 target cells; Exp 2, K562, 15:1, histamine 10^−5 M, medium (no IFN)",27.4 ± 1%
same,NKCC (cell lysis % ± SEM),"K562 target cells; Exp 2, K562, 15:1, histamine 10^−6 M plus IFN 25 U/ml",55.4 ± 1%
same,NKCC (cell lysis % ± SEM),"K562 target cells; Exp 2, K562, 15:1, histamine 10^−6 M, medium (no IFN)",23.2 ± 2%
same,NKCC (cell lysis % ± SEM),"K562 target cells; Exp 3, K562, 15:1, histamine 10^−4 M plus IFN 25 U/ml",71.9 ± 1%
same,NKCC (cell lysis % ± SEM),"K562 target cells; Exp 3, K562, 15:1, histamine 10^−4 M, medium (no IFN)",43.3 ± 1%
same,NKCC (cell lysis % ± SEM),"K562 target cells; Exp 3, K562, 15:1, histamine 10^−5 M plus IFN 25 U/ml",66.5 ± 2%
same,NKCC (cell lysis % ± SEM),"K562 target cells; Exp 3, K562, 15:1, histamine 10^−5 M, medium (no IFN)",38.6 ± 1%
same,NKCC (cell lysis % ± SEM),"K562 target cells; Exp 3, K562, 15:1, histamine 10^−6 M plus IFN 25 U/ml",56.3 ± 2%
same,NKCC (cell lysis % ± SEM),"K562 target cells; Exp 3, K562, 15:1, histamine 10^−6 M, medium (no IFN)",29.4 ± 1%
same,cytotoxicity against K562 in the NK cell-concentrated lymphocyte fraction,"K562 target cells; eluted lymphocytes without monocytes, 16-hour assay",unaffected
same,basal cytotoxicity of lymphocytes in mixtures of monocytes and lymphocytes,K562 target cells; [2],restored
same,monocyte induced inhibition of the NK cell response to IFN-α,K562 target cells; [2],eliminated
same,NKCC (cell lysis % ± SEM),"Daudi target cells; Exp 4, Daudi, 30:1, histamine 10^−4 M plus IFN 25 U/ml",31.7 ± 1%
same,NKCC (cell lysis % ± SEM),"Daudi target cells; Exp 4, Daudi, 30:1, histamine 10^−5 M plus IFN 25 U/ml",28.3 ± 1%
same,NKCC (cell lysis % ± SEM),"Daudi target cells; Exp 4, Daudi, 30:1, histamine 10^−5 M, medium (no IFN)",3.5 ± 2%
same,NKCC (cell lysis % ± SEM),"Daudi target cells; Exp 4, Daudi, 30:1, histamine 10^−6 M plus IFN 25 U/ml",14.1 ± 1%
same,NKCC (cell lysis % ± SEM),"Daudi target cells; Exp 4, Daudi, 30:1, histamine 10^−6 M, medium (no IFN)",1.1 ± 0.3%
same,NKCC (cell lysis % ± SEM),"Daudi target cells; Exp 4, Daudi, MNC/target 30:1, histamine 10^−4 M, medium (no IFN)",4.4 ± 1%
same,NKCC (cell lysis % ± SEM),"Daudi target cells; Exp 5, Daudi, 30:1, histamine 10^−4 M plus IFN 25 U/ml",61.3 ± 3%
same,NKCC (cell lysis % ± SEM),"Daudi target cells; Exp 5, Daudi, 30:1, histamine 10^−4 M, medium (no IFN)",13.5 ± 1%
same,NKCC (cell lysis % ± SEM),"Daudi target cells; Exp 5, Daudi, 30:1, histamine 10^−5 M plus IFN 25 U/ml",52.3 ± 2%
same,NKCC (cell lysis % ± SEM),"Daudi target cells; Exp 5, Daudi, 30:1, histamine 10^−5 M, medium (no IFN)",9.7 ± 1%
same,NKCC (cell lysis % ± SEM),"Daudi target cells; Exp 5, Daudi, 30:1, histamine 10^−6 M plus IFN 25 U/ml",31.7 ± 1%
same,NKCC (cell lysis % ± SEM),"Daudi target cells; Exp 5, Daudi, 30:1, histamine 10^−6 M, medium (no IFN)",2.5 ± 1%
same,NKCC (Cell Lysis %) ± SEM after treatment with IFN,Daudi target cells; Daudi 6 h,31.7 ± 0.3%
same,NKCC (Cell Lysis %) ± SEM after treatment with Ran + IFN,Daudi target cells; Daudi 6 h,1.6 ± 0.2%
same,NKCC (Cell Lysis %) ± SEM after treatment with Ran,Daudi target cells; Daudi 6 h,1.5 ± 0.3%
same,NKCC (cell lysis % ± SEM),Daudi target cells; [1],9.4 ± 0.3%
"CNC(=C[N+](=O)[O-])NCCSCc1ccc(CN(C)C)o1 [Ran, ranitidine, reference compound]",NKCC (cell lysis % ± SEM),Daudi target cells; [1],0.0 ± 0.1%
"O=C(c1ccc(F)cc1)C1CCN(CCn2c(=O)[nH]c3ccccc3c2=O)CC1 [Ketanserin, reference compound]",influence on the effect of serotonin on NKCC,Daudi target cells; ranitidine 10^−4 M,did not influence the effect of serotonin
"CCCN(CCC)[C@H]1CCc2cccc(O)c2[C@H]1C (relative stereo) [(+)-ALK-3, cis-8-hydroxy-1-methyl-2-(di-n-propylamino)tetralin, reference compound]",NKCC after treatment with IFN,Daudi target cells; Daudi 6 h,40.4 ± 1%
same,NKCC after treatment with Medium,Daudi target cells; Daudi 6 h,9.1 ± 1%
same,potency and effect in intensifying baseline NKCC and restoring the NK cell's response to IFN-α,Daudi target cells,comparable to that of serotonin
"Cc1nccn1CC1CCc2c(c3ccccc3n2C)C1=O (stereo not drawn) [ondansetron, reference compound]",influence on the effect of serotonin on NKCC,Daudi target cells; ranitidine 10^−4 M,did not influence the effect of serotonin
